Consider eight compounds from patent publication US6337074B1, “Anti-herpesviral agent” (priority 1996, dated 2002).

Like-named read-outs stand apart in the source and are kept apart here. No end group written: not given here. A value given as a limit tells only on which side of the number the result lay.

Data set [1] addresses T1, POL/UL8 interaction (Human herpesvirus 1, UniProt P04293).
T1 construct: made in house; host or cells: Spodoptera frugiperda (Sf) cells infected with recombinant baculoviruses AcUL30 and AcUL8
In words: biochemical. To be noted: for Inhibition of the POL/UL8 interaction (in words): FIG. 6. The class given is binding, HSV-1. The source says:
POL/UL8 interaction assays. ELISA assays, similar to that described for POL/UL42 (Marsden et al., 1994) were established with purified POL and UL8 proteins. POL was extracted from Sf cells infected with recombinant baculovirus AcUL30 and purified as described by Gottlieb et al. (1990) with minor modifications (Marsden et al., 1994). UL8 protein was extracted from Sf cells infected with recombinant baculovirus AcUL8 and purified as described by Parry et al., (1993) but substituting phenyl-Sepharose by hydroxylapatite chromatography (Dodson and Lehman, 1991). Both proteins were diluted in PBS to the required concentrations. For the first assay, microtiter wells were coated overnight with 0.02 μg of purified POL and blocked with 100 μl of 2% BSA in PBS for 1 h at 37° C. After blocking, the plates were washed extensively with PBS containing 0.3% Tween 20 and blotted dry. Then 50 μl of purified UL8, at the concentrations indicated in the text, were added to each well and incubated for 1 h at 37° C. […] The wells were again extensively washed and bound MAb was detected with 50 μl/well of HRP-conjugated goat anti-mouse IgG (Sigma) diluted 1:500 in PBS containing 2% FCS and chromogenic substrate ABTS. For the second assay, POL and UL8 proteins were added in the reverse order. Microtitre wells were coated overnight with 0.02 to 0.04 μg of purified UL8 protein and bound POL was detected with a POL-specific MAB 13185 (Marsden et al., 1996) diluted 1:100. Other aspects of the two assays were identical. MAbs, diluted in PBS plus 2% fetal calf serum, and peptides, diluted in 100 mM Tris-HCl (pH 8.0) plus 0.1% Tween 20, were added to the interaction assay as described in the text.
Inhibition of the POL/UL8 interaction by UL8 peptides. […] Peptides were dissolved in 100 mM Tris-HCl (pH 8.0) plus 0.1% Tween 20 at different concentrations and incubated with POL for 15 min to allow the peptides to bind to POL. The mixtures were then added to microtiter wells coated with UL8 and the amount of POL bound was determined after 1 h. […] The concentration of each peptide required to reduce POL binding by 50% (the IC50 value) was determined in at least 3, and on average 5, independent experiments.
The jumbled peptide, 7J, was made by linking residues from alternately the N- and C-termini of peptide 7. Thus, if the order of the 20 residues in peptide 7 is represented as 1, 2, 3, . . . 18, 19, 20, that in 7J was 1, 20, 2, 19, . . . […].
We next investigated whether the preincubation step was necessary.

A further data set deals with T2, UL54/UL102 interaction (Human cytomegalovirus, UniProt P08546).
T2 construct: made in house; host or cells: Spodoptera frugiperda (Sf) cells infected with recombinant baculoviruses AcUL54 and AcUL102
Put plainly: UL54/UL102 interaction ELISA, inhibition by UL102 peptides. The class given is binding, HCMV. Here is the method: UL54/UL102 interaction assays. ELISA assays, similar to those described for HSV-1 POL/UL8 (see Example 1 above) were established with purified HCMV UL54 and UL102 proteins. […] The wells were again extensively washed and bound antibody was detected with 50 μl/well of HRP-conjugated protein A (Sigma) diluted 1:500 in PBS containing 2% FCS. After further washes, chromogenic substrate ABTS was added.
Inhibition of the UL54/UL102 interaction by UL102 peptides. […] To do this, the peptides listed in Table 4 were tested for their ability to block the interaction of HCMV UL102 with HCMV UL54. […] The amount of UL54 bound was determined after 1 h by measuring the absorbance at 405 nm as described. The absorbance in the absence of any peptide, 1.061±0.033, was determined from six wells. The background absorbance in the absence of any UL54, 0.240±0.025, was also determined from six wells and was subtracted from all values. […] The concentration of each peptide required to reduce UL54-binding by 50% (the IC50 value) was determined and is listed in Table 4.
For orientation: In an ELISA, binding on a coated surface is turned into a signal by an enzyme label.

Data set [2] in a line: Solubility of peptides in assay buffer. The class given is physicochemical. To be noted: 100 mM Tris-HCl (pH 8.0) plus 0.1% Tween 20.
Data set [3] deals with T1, POL/UL8 interaction. In words: biochemical. The class given is binding, HSV-1. To be noted: IC50 value for inhibition of the POL/UL8 interaction, FIG. 8; no pre-incubation, peptide added a few seconds after POL.
The mark [4] stands for this setting: IC50 value for inhibition of the POL/UL8 interaction, experiment shown in FIG. 7, 15 min pre-incubation with POL.

T1 sequence (P04293 whole entry): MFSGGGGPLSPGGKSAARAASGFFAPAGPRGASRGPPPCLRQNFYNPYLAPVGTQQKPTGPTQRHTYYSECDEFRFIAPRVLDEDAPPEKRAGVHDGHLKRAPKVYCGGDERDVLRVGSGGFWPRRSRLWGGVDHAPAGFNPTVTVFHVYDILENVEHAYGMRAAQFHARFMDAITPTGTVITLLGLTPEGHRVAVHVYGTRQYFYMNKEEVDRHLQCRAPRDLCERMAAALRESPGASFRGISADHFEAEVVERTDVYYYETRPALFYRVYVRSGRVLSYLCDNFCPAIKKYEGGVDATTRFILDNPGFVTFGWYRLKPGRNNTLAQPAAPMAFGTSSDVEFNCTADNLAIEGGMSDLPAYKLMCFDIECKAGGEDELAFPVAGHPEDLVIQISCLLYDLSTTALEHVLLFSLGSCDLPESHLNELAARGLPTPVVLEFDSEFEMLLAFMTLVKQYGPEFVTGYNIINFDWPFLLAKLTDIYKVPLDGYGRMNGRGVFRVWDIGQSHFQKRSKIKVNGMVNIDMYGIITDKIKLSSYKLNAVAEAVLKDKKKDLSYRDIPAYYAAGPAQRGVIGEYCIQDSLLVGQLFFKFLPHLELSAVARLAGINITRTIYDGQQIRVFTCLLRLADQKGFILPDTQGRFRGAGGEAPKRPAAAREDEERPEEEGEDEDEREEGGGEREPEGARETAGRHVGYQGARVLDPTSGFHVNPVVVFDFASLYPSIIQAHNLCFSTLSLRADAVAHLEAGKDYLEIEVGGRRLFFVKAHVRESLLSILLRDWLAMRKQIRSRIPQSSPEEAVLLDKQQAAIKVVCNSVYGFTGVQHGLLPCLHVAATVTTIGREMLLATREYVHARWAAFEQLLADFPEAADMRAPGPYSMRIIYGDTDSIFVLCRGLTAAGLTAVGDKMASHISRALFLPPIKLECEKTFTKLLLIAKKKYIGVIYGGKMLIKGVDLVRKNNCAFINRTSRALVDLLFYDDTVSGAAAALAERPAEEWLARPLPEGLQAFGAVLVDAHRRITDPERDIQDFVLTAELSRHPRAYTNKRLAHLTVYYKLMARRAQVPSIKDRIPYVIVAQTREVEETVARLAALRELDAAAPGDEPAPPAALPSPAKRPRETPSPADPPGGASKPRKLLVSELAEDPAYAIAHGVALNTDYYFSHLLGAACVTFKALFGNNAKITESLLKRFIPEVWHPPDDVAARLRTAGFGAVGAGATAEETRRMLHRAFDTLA
T2 sequence (P08546 whole entry): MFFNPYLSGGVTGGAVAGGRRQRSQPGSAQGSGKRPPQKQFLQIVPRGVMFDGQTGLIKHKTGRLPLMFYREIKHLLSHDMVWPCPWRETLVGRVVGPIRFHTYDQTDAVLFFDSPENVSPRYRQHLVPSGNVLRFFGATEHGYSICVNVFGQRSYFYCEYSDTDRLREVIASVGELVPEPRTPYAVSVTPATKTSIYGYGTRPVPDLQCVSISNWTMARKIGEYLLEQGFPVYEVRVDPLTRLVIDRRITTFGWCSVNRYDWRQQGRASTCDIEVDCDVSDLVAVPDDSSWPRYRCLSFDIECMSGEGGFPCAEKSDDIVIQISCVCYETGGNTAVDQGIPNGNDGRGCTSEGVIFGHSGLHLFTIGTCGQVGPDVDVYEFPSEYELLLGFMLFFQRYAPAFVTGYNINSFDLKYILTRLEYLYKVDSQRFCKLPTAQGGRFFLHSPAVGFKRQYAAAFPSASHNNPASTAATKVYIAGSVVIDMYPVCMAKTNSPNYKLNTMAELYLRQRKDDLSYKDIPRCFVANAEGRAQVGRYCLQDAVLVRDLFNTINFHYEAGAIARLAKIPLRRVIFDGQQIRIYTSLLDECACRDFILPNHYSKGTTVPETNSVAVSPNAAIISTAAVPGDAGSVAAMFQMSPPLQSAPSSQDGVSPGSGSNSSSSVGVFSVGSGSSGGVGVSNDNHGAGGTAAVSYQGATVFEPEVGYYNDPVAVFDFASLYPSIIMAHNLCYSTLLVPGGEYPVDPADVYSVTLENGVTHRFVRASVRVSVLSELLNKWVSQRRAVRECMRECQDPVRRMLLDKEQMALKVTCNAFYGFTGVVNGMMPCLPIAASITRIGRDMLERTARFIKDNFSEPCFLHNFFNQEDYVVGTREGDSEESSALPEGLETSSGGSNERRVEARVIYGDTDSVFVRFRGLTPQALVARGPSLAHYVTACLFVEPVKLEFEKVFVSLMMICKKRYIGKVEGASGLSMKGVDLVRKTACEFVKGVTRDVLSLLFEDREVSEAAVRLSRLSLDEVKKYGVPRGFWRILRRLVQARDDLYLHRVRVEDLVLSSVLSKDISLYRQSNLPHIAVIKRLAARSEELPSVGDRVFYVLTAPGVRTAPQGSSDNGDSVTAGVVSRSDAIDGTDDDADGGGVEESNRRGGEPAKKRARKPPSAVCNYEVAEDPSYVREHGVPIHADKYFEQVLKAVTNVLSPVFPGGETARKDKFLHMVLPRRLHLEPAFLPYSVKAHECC

The IC50 is the concentration needed to halve the response being measured. Read a high IC50 as weaker potency in that assay. Regarding `CC[C@H](C)[C@H](NC(=O)[C@@H]1CCCN1C(=O)[C@H](CCC(=O)O)NC(=O)[C@H](CCCCN)NC(=O)[C@H](CCC(=O)O)NC(=O)[C@H](CC(C)C)NC(=O)[C@H](CCC(N)=O)NC(=O)[C@H](Cc1ccc(O)cc1)NC(=O)[C@H](Cc1c[nH]c2ccccc12)NC(=O)[C@H](CC(C)C)NC(=O)[C@H](CCCCN)NC(=O)[C@@H](N)C(C)C)C(=O)N[C@H](C(=O)NCC(=O)N[C@@H](C)C(=O)O)C(C)C` [Peptide RT85, reference compound], the 50% inhibitory concentration (IC50) on POL/UL8 interaction [1] is greater than 250 µM; against UL54/UL102 interaction, greater than 200 µM.
Compound EILREIELVFTGVLA [Peptide 8] showed an IC50 against POL/UL8 interaction [1] greater than 250 µM.
For IELVFTGVLAGVWGEGGKFV [Peptide 7], the half-maximal inhibitory concentration (IC50) on POL/UL8 interaction [1] was 2.3 ± 2.2 µM; against POL/UL8 interaction [1] (IC50 value for inhibition of the POL/UL8 interaction, FIG. 8, peptide pre-incubated with POL for 15 min), roughly 1 µM; at POL/UL8 interaction [1] (setting [4]), roughly 1 µM; at POL/UL8 interaction [3], roughly 1 µM. Besides, on POL/UL8 interaction [1], the “Inhibition of the POL/UL8 interaction (in words)” value is recorded as “markedly inhibitory”. For the same compound, in data set [2], the “Solubility (in words)” value was “limited solubility”.
For the compound “IVEFLKVGFGTEGGVWLVAG [Peptide 7J, reference compound]”, the half-inhibitory concentration (IC50) against POL/UL8 interaction [1] and against POL/UL8 interaction [1] (setting [4]) was greater than 20 µM each time.
Consider TGVLAGVWGEGGKFV [Peptide 6], for which the 50% inhibitory concentration (IC50) against POL/UL8 interaction [1] was greater than 250 µM.
Same read-out and setting: with TGVLAGVWGEGGKFVYPFDDKMSFLFA [Peptide 4] the figure was greater than 250 µM.
Take “VFTGVLAGVWGEGGKFVYPFDDKMSFLFA [Peptide 5]”: at POL/UL8 interaction [1], the IC50 was 66 ± 22 µM and the “Inhibition of the POL/UL8 interaction (in words)” value was “markedly inhibitory”. The “Solubility (in words)” value in data set [2] was “limited solubility”.
As for VLAGVWGEGGKFVYPFDDKMSFLFA [Peptide 3], at POL/UL8 interaction [1], the concentration for half-maximal inhibition (IC50) is greater than 250 µM.
